Experimental data published in US9169237B1, “Antiprotozoal amidine compounds” (Medi Synergics, LLC, priority 2014, dated 2015).

System: T. brucei brucei
Experiment: T. brucei brucei growth inhibition assay
Format: cell-based, Trypanosoma brucei brucei clone 427-221a (bloodstream forms)
Conditions: Trypanosoma brucei; bloodstream forms, T. brucei brucei clone 427-221a; 40 hours at 37° C.; 0.5% DMSO; ATP-bioluminescence; read-out: IC50 (μM) (95% Confidence Intervals)
Procedure: The growth inhibition assay for T. brucei brucei was conducted as described previously by Z. B. Mackey et al (Kenny K. H. Ang, Joseline Ratnam, Jiri Gut, Jennifer Legac, Elizabeth Hansell, Zachary B. Mackey, Katarzyna M. Skrzypczynska, Anjan Debnath, Juan C. Engel, Philip J. Rosenthal, James H. McKerrow, Michelle R. Arkin, Adam R. Renslo (2011) “Mining a Cathepsin Inhibitor Library for New Antiparasitic Drug Leads”, PLoS Neglected Tropical Diseases, 5(5):e1023). Bloodstream forms of the monomorphic T. brucei brucei clone 427-221a were grown in complete HMI-9 medium containing 10% FBS, 10% Serum Plus medium (Sigma Inc., St. Louis, Mo., USA), 50 U/mL penicillin and […] streptomycin (Invitrogen) at 37° C. under a humidified atmosphere and 5% CO2. Inhibitor stocks were prepared in 100% DMSO and screened at […] for percent inhibition values or serially diluted from […] in 10% DMSO for […] determinations. […] of each dilution was added to […] of diluted parasites ([…]) in sterile Greiner 96-well flat white opaque culture plates such that the final DMSO concentration was 0.5%. The 0% inhibition control wells contained 0.5% DMSO while 100% inhibition control wells contained […] thimerosal (Sigma). After compound addition, plates were incubated for 40 hours at 37° C. At the end of the incubation period, […] of CellTiter-GIo™ reagent (Promega Inc., Madison, Wis., USA) was added to each well and plates were placed on an orbital shaker at room temperature for 2 min to induce lysis. After an additional 10 min of incubation without shaking to stabilize the signal, the ATP-bioluminescence of each well was determined using an Analyst HT plate reader (Molecular Devices, Sunnyvale, Calif., USA). Raw values were converted to log 10 and percentage inhibition calculated relative to the controls. IC50 curve fittings were performed with Prism 4 software as above. Pentamidine was used as a comparator in the assay.

IC50 | SMILES
20 µM | CN(CCCC1(c2ccc(F)cc2)OCc2cc(C#N)ccc21)C1=NCCCC1 (stereo not drawn) [Example 3, 1-(4-fluorophenyl)-1-{3-[methyl(3,4,5,6-tetrahydropyridin-2-yl)amino]propyl}-1,3-dihydro-2-benzo-furan-5-carbonitrile]
1.1 µM | CN(CCCC1(c2ccc(F)cc2)OCc2cc(C#N)ccc21)C(=N)c1ccccc1 (stereo not drawn) [Example 2, N-{3-[5-cyano-1-(4-fluorophenyl)-1,3-dihydro-2-benzofuran-1-yl]propyl}-N-methyl-phenylmethanimidamide]
10 µM | CC(=N)N(C)CCCC1(c2ccc(F)cc2)OCc2cc(C#N)ccc21 (stereo not drawn) [Example 1, N-{3-[5-cyano-1-(4-fluorophenyl)-1,3-dihydro-2-benzofuran-1-yl]propyl}-N-methyl-ethanimidamide]
